How the values were obtained:
Assay type in all cases: functional
[1] = test system: Staphylococcus aureus; test: Antibacterial activity against Staphylococcus aureus NCIM 2079 measured after 12 hrs by spectrophotometric method; conditions: NCIM 2079, 12 h
[2] = test system: Escherichia coli; test: Antibacterial activity against Escherichia coli NCIM 2688 at 10 ug/ml measured after 8 hrs by spectrophotometric method; conditions: NCIM 2688, 8 h
[3] = test system: Bacillus subtilis; test: Antibacterial activity against Bacillus subtilis NCIM 2010 at 3 ug/ml measured after 12 hrs by spectrophotometric method; conditions: NCIM 2010, 12 h
[4] = test system: Pseudomonas aeruginosa; test: Antibacterial activity against Pseudomonas aeruginosa NCIM 2036 at 3 ug/ml measured after 8 hrs by spectrophotometric method; conditions: NCIM 2036, 8 h
[5] = test system: Mycobacterium tuberculosis; test: Antitubercular activity against dormant stage Mycobacterium tuberculosis H37Ra at 10 ug/ml measured after 12 days by XTT assay; conditions: 288 h
[6] = test system: Mycobacterium tuberculosis; test: Antitubercular activity against dormant stage Mycobacterium tuberculosis H37Ra at 3 ug/ml measured after 12 days by XTT assay; conditions: 288 h
[7] = test system: Bacillus subtilis; test: Antibacterial activity against Bacillus subtilis NCIM 2010 at 30 ug/ml measured after 12 hrs by spectrophotometric method; conditions: NCIM 2010, 12 h
[8] = test system: Escherichia coli; test: Antibacterial activity against Escherichia coli NCIM 2688 at 30 ug/ml measured after 8 hrs by spectrophotometric method; conditions: NCIM 2688, 8 h
[9] = test system: Pseudomonas aeruginosa; test: Antibacterial activity against Pseudomonas aeruginosa NCIM 2036 at 10 ug/ml measured after 8 hrs by spectrophotometric method; conditions: NCIM 2036, 8 h
[10] = test system: Pseudomonas aeruginosa; test: Antibacterial activity against Pseudomonas aeruginosa NCIM 2036 measured after 8 hrs by spectrophotometric method; conditions: NCIM 2036, 8 h
[11] = test system: Bacillus subtilis; test: Antibacterial activity against Bacillus subtilis NCIM 2010 at 10 ug/ml measured after 12 hrs by spectrophotometric method; conditions: NCIM 2010, 12 h
[12] = test system: Mycobacterium tuberculosis; test: Antitubercular activity against dormant stage Mycobacterium tuberculosis H37Ra at 30 ug/ml measured after 12 days by XTT assay; conditions: 288 h
[13] = test system: Mycobacterium tuberculosis; test: Antitubercular activity against dormant stage Mycobacterium tuberculosis H37Ra measured after 12 days by XTT assay; conditions: 288 h
[14] = test system: Pseudomonas aeruginosa; test: Antibacterial activity against Pseudomonas aeruginosa NCIM 2036 at 30 ug/ml measured after 8 hrs by spectrophotometric method; conditions: NCIM 2036, 8 h
[15] = test system: Staphylococcus aureus; test: Antibacterial activity against Staphylococcus aureus NCIM 2079 at 10 ug/ml measured after 12 hrs by spectrophotometric method; conditions: NCIM 2079, 12 h
[16] = test system: Escherichia coli; test: Antibacterial activity against Escherichia coli NCIM 2688 measured after 8 hrs by spectrophotometric method; conditions: NCIM 2688, 8 h
[17] = test system: Staphylococcus aureus; test: Antibacterial activity against Staphylococcus aureus NCIM 2079 at 30 ug/ml measured after 12 hrs by spectrophotometric method; conditions: NCIM 2079, 12 h
[18] = test system: Bacillus subtilis; test: Antibacterial activity against Bacillus subtilis NCIM 2010 measured after 12 hrs by spectrophotometric method; conditions: NCIM 2010, 12 h
[19] = test system: Escherichia coli; test: Antibacterial activity against Escherichia coli NCIM 2688 at 3 ug/ml measured after 8 hrs by spectrophotometric method; conditions: NCIM 2688, 8 h
[20] = test system: Staphylococcus aureus; test: Antibacterial activity against Staphylococcus aureus NCIM 2079 at 3 ug/ml measured after 12 hrs by spectrophotometric method; conditions: NCIM 2079, 12 h

| Structure (SMILES) | IC50 [1] [µg/mL] | MIC [1] [µg/mL] | inhibition at 10 µg/mL [2] [%] | inhibition at 3 µg/mL [3] [%] | inhibition at 3 µg/mL [4] [%] | inhibition at 10 µg/mL [5] [%] | inhibition at 3 µg/mL [6] [%] | inhibition at 30 µg/mL [7] [%] | inhibition at 30 µg/mL [8] [%] | inhibition at 10 µg/mL [9] [%] | IC50 [10] [µg/mL] | MIC [10] [µg/mL] | inhibition at 10 µg/mL [11] [%] | inhibition at 30 µg/mL [12] [%] | IC50 [13] [µg/mL] | MIC [13] [µg/mL] | inhibition at 30 µg/mL [14] [%] | inhibition at 10 µg/mL [15] [%] | IC50 [16] [µg/mL] | MIC [16] [µg/mL] | also measured |
| --- | --- | --- | --- | --- | --- | --- | --- | --- | --- | --- | --- | --- | --- | --- | --- | --- | --- | --- | --- | --- | --- |
| COCC(=O)NC[C@H]1CN(c2ccc(N3CC4(COC4)C3)c(F)c2)C(=O)O1 | > 100 | > 100 | 65.4 | 51.2 | 14.4 | -13.7 | -22.9 | 95.2 | 66.6 | 37.1 | > 100 | > 100 | 77.7 | 50.1 | > 100 | > 100 | 63.7 | 92.2 | > 100 | > 100 | inhibition at 30 µg/mL [17]: 98.8%; IC50 [18]: > 100 µg/mL; MIC [18]: > 100 µg/mL; inhibition at 3 µg/mL [19]: 61.5%; inhibition at 3 µg/mL [20]: 72.3% |
| O=C1O[C@@H](CNS(=O)(=O)c2cc([N+](=O)[O-])ccc2Cl)CN1c1ccc(N2CC3(COC3)C2)c(F)c1 | > 100 | > 100 | 15.8 | 47 | -6.17 | 29.2 | 24.4 | 88.4 | 49.6 | 38.6 | > 100 | > 100 | 62.1 | 59.6 | > 100 | > 100 | 68.6 | 55 | > 100 | > 100 | inhibition at 30 µg/mL [17]: 89.5%; IC50 [18]: > 100 µg/mL; MIC [18]: > 100 µg/mL; inhibition at 3 µg/mL [19]: 2.37%; inhibition at 3 µg/mL [20]: 42% |
| O=C1O[C@@H](CNC(=S)Nc2ccc([N+](=O)[O-])cc2)CN1c1ccc(N2CC3(COC3)C2)c(F)c1 | > 100 | > 100 | 61 | 62.7 | 9.11 | 4.66 | 9.41 | 80.4 | 65.5 | 41.8 | > 100 | > 100 | 76.2 | -13.5 | > 100 | > 100 | 73.6 | 74.5 | > 100 | > 100 | inhibition at 30 µg/mL [17]: 81%; IC50 [18]: > 100 µg/mL; MIC [18]: > 100 µg/mL; inhibition at 3 µg/mL [19]: 51.8%; inhibition at 3 µg/mL [20]: 66.7% |
| O=C1O[C@@H](CNC(=O)C23CC4CC(CC(C4)C2)C3)CN1c1ccc(N2CC3(COC3)C2)c(F)c1 | > 100 | > 100 | 43.3 | 51.3 | 49.6 | 4.41 | 9.46 | 69.8 | 60.1 | 39.2 | > 100 | > 100 | 62 | 22.1 | > 100 | > 100 | 40.7 | 55.5 | > 100 | > 100 | inhibition at 30 µg/mL [17]: 71.1%; IC50 [18]: > 100 µg/mL; MIC [18]: > 100 µg/mL; inhibition at 3 µg/mL [19]: 36.8%; inhibition at 3 µg/mL [20]: 54.9% |
| O=C1O[C@@H](CNS(=O)(=O)c2cc(Cl)cc(Cl)c2)CN1c1ccc(N2CC3(COC3)C2)c(F)c1 | > 100 | > 100 | 23.5 | 51 | 42.2 | -5.84 | 8.02 | 66.6 | 25.4 | 67.2 | > 100 | > 100 | 56.1 | 23.2 | > 100 | > 100 | 86.6 | 50.6 | > 100 | > 100 | inhibition at 30 µg/mL [17]: 74.2%; IC50 [18]: > 100 µg/mL; MIC [18]: > 100 µg/mL; inhibition at 3 µg/mL [19]: 36.8%; inhibition at 3 µg/mL [20]: 55.1% |
| CC1(C)[C@@]2(C)CC[C@]1(C(=O)NC[C@H]1CN(c3ccc(N4CC5(COC5)C4)c(F)c3)C(=O)O1)OC2=O | > 100 | > 100 | 28.8 | 40.5 | 50.6 | -38.5 | 9.81 | 69.8 | 39.5 | 55 | > 100 | > 100 | 53.8 | 15.6 | > 100 | > 100 | 56.4 | 51.1 | > 100 | > 100 | inhibition at 30 µg/mL [17]: 70.2%; IC50 [18]: > 100 µg/mL; MIC [18]: > 100 µg/mL; inhibition at 3 µg/mL [19]: 20%; inhibition at 3 µg/mL [20]: 50.6% |
